Literature values as cited in patent US5849696A, “Composition and method of treating hepatitis C” (The Board of Governors of Wayne State University, priority 1993, dated 1998).
Like-named read-outs stand apart in the source and are kept apart here. Where no end group is shown, it is not given here.

Experiments:
HCV = settings: in vivo
[1] = system: Woodchuck Hepatitis Virus; settings: woodchuck infected with Woodchuck Hepatitis Virus
[2] = system: natural killer-cell activity; settings: THNα1 together with interferon, immunosuppressed mice
hepatitis B virus (HBV) = settings: treated for a year
[3] = system: nonsmall cell lung cancer
[4] = system: chronic hepatitis C (NANB hepatitis)

## Nc1nc2c(ncn2COCCO)c(=O)[nH]1 [acyclovir]
HCV
  effect on HCV-related diseases: ineffective

## Thymosin α-1 (SDAAVDTSSEITTKDLKEKKEVVEEAEN; ends and bridges not checked; UniProt P06454 2-29, looked up) [THNα1]
Human lymphocytes
  interleukin-2 receptor expression: increase
  production of interferon-α, interferon-γ and interleukin-2: promote production
[1]
  clinical parameters: no improvement
  viral DNA replication: suppressed viral DNA replication
[2]
  effect on natural killer-cell activity: synergistic effect
Influenza vaccine; drug recipients
  clinical or biochemical toxicity: No clinical or biochemical toxicity was observed
Influenza vaccine; six weeks post-vaccine, subcutaneously twice weekly
  levels of antibody to influenza: higher levels of antibody to influenza than controls
Hepatitis B virus (HBV); pooled THNα1 (5 patients) and TF-5 (2 patients)
  patients with reduced levels of serum HBV DNA: 6 of the 7
Hepatitis B virus (HBV); pooled THNα1 and TF-5 patients
  patients initially positive for serum HBsAg who subsequently cleared this antigen: 5 of 6
Hepatitis B virus (HBV); THNα1 (5 patients) or TF-5 (2 patients)
  serum ALT: marked decrease
[3]; after radiotherapy
  immune function: some restoration of radiation-suppressed immune function
[3]; both THNα1 treatment groups versus placebo group
  relapse-free survival and overall survival: greater
[3]; human, in vivo
  T-cell numbers: no increase

## interferon α
[4]; 1 MU
  relapse within six months after the completion of treatment: 44%
[4]; 1 MU three times weekly for 24 weeks, nine of sixteen patients
  serum ALT response: 56%
[4]; 3 MU
  liver histology: histologic improvement
  relapse within six months after the completion of treatment: 51%
[4]; 3 MU three times weekly for 24 weeks, 22 of the 26 patients who responded
  serum ALT level became completely normal: 85%
Chronic NANB hepatitis; 1 MU three times a week
  mean serum ALT levels during the 24 week treatment period: decreased
Chronic NANB hepatitis; at 24 weeks, 1 MU group
  proportion of patients with normal ALT levels: 45%
Chronic NANB hepatitis; at 24 weeks, 3 MU group
  proportion of patients with normal ALT levels: 39%
Chronic NANB hepatitis; at week 48, 1 MU group
  proportion of patients with normal ALT levels: 20%
Chronic NANB hepatitis; at week 48, 3 MU group
  proportion of patients with normal ALT levels: 28%
Chronic NANB hepatitis; higher dose group (3 MU)
  repeat liver biopsy, severity of histological changes: significant decrease in the severity of histological changes
Chronic NANB hepatitis; responders
  relapse in disease activity when interferon was stopped: approximately half of the responders
Chronic HCV infection; 2 MU subcutaneously three times weekly for six months
  mean serum ALT and histological features of the liver: improved significantly
Chronic HCV infection; 2 MU subcutaneously three times weekly for six months, ten of twenty-one patients
  complete response (decline in mean serum ALT to the normal range during therapy): 48%
Chronic HCV infection; 2 MU three times weekly for six months
  further patients with decrease in mean ALT of more than 50%: three
Chronic HCV infection; six to twelve months after discontinuation of therapy, two patients
  patients still with normal serum ALT values: 10%
